In publication PMC6010117, “Isatin: a privileged scaffold for the design of carbonic anhydrase inhibitors” (Journal of Enzyme Inhibition and Medicinal Chemistry, 2016):

What was measured:
Test in all cases: CA inhibition assay, Verpoorte method at […] nm, Lineweaver-Burk
Format in all cases: biochemical
hCA IX = target: T1, hCA IX (Homo sapiens, UniProt Q16790)
T1 construct: gene CA9; not described

hCA II = target: T2, hCA II (Homo sapiens, UniProt P00918)
T2 construct: gene CA2

hCA I = target: T3, hCA I (Homo sapiens, UniProt P00915)
T3 construct: gene CA1

hCA XII = target: T4, hCA XII (Homo sapiens, UniProt O43570)
T4 construct: gene CA12; not described
T4 sequence (O43570 25-354): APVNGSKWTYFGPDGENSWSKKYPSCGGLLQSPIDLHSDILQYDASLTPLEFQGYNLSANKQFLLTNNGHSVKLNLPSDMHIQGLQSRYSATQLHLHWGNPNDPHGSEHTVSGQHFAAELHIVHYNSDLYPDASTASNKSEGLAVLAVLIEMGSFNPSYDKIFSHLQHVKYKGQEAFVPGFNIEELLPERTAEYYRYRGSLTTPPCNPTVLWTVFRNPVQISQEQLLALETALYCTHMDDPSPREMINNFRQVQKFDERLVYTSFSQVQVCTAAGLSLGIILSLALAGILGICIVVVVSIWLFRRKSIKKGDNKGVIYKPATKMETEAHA

T3 sequence (P00915 2-261): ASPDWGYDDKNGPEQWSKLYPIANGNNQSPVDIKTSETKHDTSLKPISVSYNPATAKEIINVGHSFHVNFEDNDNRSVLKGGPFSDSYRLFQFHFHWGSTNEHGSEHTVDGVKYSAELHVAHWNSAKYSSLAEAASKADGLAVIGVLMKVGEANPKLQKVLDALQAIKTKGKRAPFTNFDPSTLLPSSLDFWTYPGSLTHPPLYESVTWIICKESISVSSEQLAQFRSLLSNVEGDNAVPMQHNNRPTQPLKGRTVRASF

Row | Ki (hCA IX) | Ki (hCA II) | Ki (hCA I) | Ki (hCA XII) | Compound
1 | 0.0557 µM | 8.3 µM | 0.958 µM | 0.865 µM | CN1C(=O)C(=C2C(=O)Nc3ccc(Cl)cc32)SC1=Nc1ccc(S(N)(=O)=O)cc1 [c, EMAC 10020 c]
2 | 0.0507 µM | 0.274 µM | 0.0503 µM | 0.085 µM | CN1C(=O)C(=C2C(=O)Nc3ccc(F)cc32)SC1=Nc1ccc(S(N)(=O)=O)cc1 [d, EMAC 10020 d]
3 | 0.003 µM | 0.0791 µM | 0.0876 µM | 0.44 µM | Cc1ccc2c(c1)C(=C1SC(=Nc3ccc(S(N)(=O)=O)cc3)N(C)C1=O)C(=O)N2 [l, EMAC 10020 l]
4 | 0.0041 µM | 0.139 µM | 0.0443 µM | 0.0907 µM | CN1C(=O)C(=C2C(=O)Nc3c(F)cccc32)SC1=Nc1ccc(S(N)(=O)=O)cc1 [m, EMAC 10020 m]
5 | 2.66 µM | 5.72 µM | 0.945 µM | 0.873 µM | CN1C(=O)C(=C2C(=O)Nc3ccc(C(F)(F)F)cc32)SC1=Nc1ccc(S(N)(=O)=O)cc1 [n, EMAC 10020 n]
6 | 0.126 µM | 8.78 µM | 0.877 µM | 0.824 µM | CN1C(=O)C(=C2C(=O)Nc3c(Br)cccc32)SC1=Nc1ccc(S(N)(=O)=O)cc1 [o, EMAC 10020 o]
